Values quoted from earlier work in patent US8492366B2, “Enhancedly-solubilized beta-hydroxy acids and higher potency skin peels formulated therefrom” (Societe L'Oreal S.A., priority 2002, dated 2013).

In the case of `O=C(O)c1ccccc1O` [salicylic acid, 2-hydroxybenzoic acid], the “maximum solubility in alcohol” value is given as roughly 29%.
